Data set [1] deals with T1, erk2 (Homo sapiens, UniProt P28482).
T1 construct: made in house
Nature of the data set: Kinase selectivity panel. Format: biochemical. The following applies: 15 μM ATP.

The target in data set [2] is T2, erk1 (Homo sapiens, UniProt P27361).
T2 construct: made in house
Nature of the data set: Kinase selectivity panel. Format: biochemical. As to conditions: 15 μM ATP.

Data set [3] has as its target c-Jun N-terminal kinase. Nature of the data set: Kinase selectivity panel. Format: biochemical. The following applies: 15 μM ATP.
Data set [4] addresses Casein kinase 1. Nature of the data set: Kinase selectivity panel. Type of data set: biochemical. As to conditions: 15 μM ATP.
The target in data set [5] is Casein kinase 2. Nature of the data set: Kinase selectivity panel. As to conditions: 15 μM ATP. Format: biochemical.
Data set [6] concerns the target T3, CDK4/cyclin D1 (Homo sapiens, UniProt P11802).
T3 construct: made in house
Nature of the data set: Kinase selectivity panel. Type of data set: biochemical. The following applies: 15 μM ATP.

The target of data set [7] is Insulin receptor tyrosine kinase (Homo sapiens, UniProt P06213). As to conditions: read-out: IC50 Insulin receptor tyrosine kinase; 15 μM ATP.
The target of data set [8] is MAPKK. Nature of the data set: Kinase selectivity panel. Format: biochemical. As to conditions: 15 μM ATP.
Data set [9] concerns the target GSK-3α/β. Nature of the data set: GSK-3 kinase assay (GS-1 peptide, 15 μM ATP). The following applies: text summary of selectivity; read-out: IC50 GSK-3α/β. Type of data set: biochemical, porcine. The protocol: (§1) Blank values were subtracted and activities calculated as pmoles of phosphate incorporated for a 10 min. incubation. […] Controls were performed with appropriate dilutions of dimethylsulfoxide. In a few cases phosphorylation of the substrate was assessed by autoradiography after SDS-PAGE.
GSK-3α/β was either purified from porcine brain or expressed in and purified from insect Sf9 cells. […] ATP (3,000 Ci/mmol; 1 mCi/ml) in a final volume of 30 μl. After 30 min. incubation at 30° C., 25 μl aliquots of supernatant were spotted onto 2.5×3 cm pieces of Whatman P81 phosphocellulose paper, and, 20 sec. later, the filters were washed five times (for at least 5 min. each time) in a solution of 10 ml phosphoric acid/liter of water. The wet filters were counted in the presence of 1 ml ACS (Amersham) scintillation fluid.
(§2) Kinases were assayed as above described in the presence of increasing concentrations of aloisines.

Data set [10] relates to NT2 cells. Nature of the data set: Cell cycle analysis by flow cytometry. Type of data set: cell-based, human. How it is done:
(§3) Clonal human NT2 teraterocarcinoma cells were obtained from Stratagene (La Jolla, Calif.) and grown in Dulbecco's Modified Eagle Medium: Nutrient Mixture F-12 with 2 mM L-Glutamine (BIO […]) supplemented with 5% FCS and containing penicillin (20 UI/ml) and streptomycin (20 μg/ml) at 37° C., in a humidified atmosphere containing 5% CO2 in air.
(§4) Exponentially growing cells were incubated for 24 h with aloisine A (stock solution dissolved in dimethylsulfoxide). Nocodazole treatment of cells was performed at a concentration of 0.04 μg nocodazole/ml of medium for 24 h. Following the nocodazole treatment, cells were washed twice with fresh medium and cultured with or without aloisine A for 24 h. To perform serum deprivation, cells were maintained in serum-free medium for 40 h. Following serum deprivation, cells were washed twice and cultured in fresh serum-containing medium with or without aloisine A for 40 h.
Cells were trypsinised, collected by centrifugation and fixed in cold 70% ethanol for at least 4 h. Fixed cells were washed in PBS, incubated with 10 μg RNAse A/ml and stained with 25 μg propidium iodide/ml for 1 h at 37° C. The stained cells were then analysed for cell cycle distribution on a FACSort flow cytometer (Becton Dickinson). Cell cycle analyses were performed multiCYCLE (18).
The effect of aloisine A on the cell cycle distribution was investigated for NT2 cells by flow cytometry. Unsynchronised cells (FIG. 4E) were exposed to 20 μM aloisine A for 40 h (FIG. 4F).
The effects of aloisine A on NT2 cells synchronized either in G0/G1 by serum deprivation or in G2/M by nocodazole treatment was also investigated. The results are given on FIG. 4: the cell cycle phase distribution was analysed by flow cytometry following propidium iodide staining. (A, B, C). NT2 cells were synchronized by serum deprivation for […] (A), then cultured for 40 h in fresh medium without (B) or with 20 μM aloisine A (C). (D, E, F). NT2 cells were synchronized by nocodazole treatment ([…]) for 24 h (D), then cultured for 40 h in fresh medium without (E) or with 20 μM aloisine A (F).
In general terms: Flow cytometry measures light scatter and fluorescence of single cells or particles in a stream.

Data set [11] relates to NT2 cells. Nature of the data set: Exponential cell growth of NT2 cells. Format: cell-based, human. As to conditions: figure legend FIGS. 4A to 4E. The protocol:
as §3, §4
The formazan products were dissolved in DMSO and quantified by measurement of the absorbance at 562 nm.

The target of data set [12] is T4, protein kinase C η (Homo sapiens, UniProt P24723).
T4 construct: made in house
Nature of the data set: Kinase selectivity panel. Type of data set: biochemical. The following applies: 15 μM ATP.

The subject of data set [13] is CDK1/cyclin B. Nature of the data set: CDK1/cyclin B kinase assay (histone H1, 15 μM ATP). As to conditions: ATP 0.1 to […], histone H1 0.7 mg/ml, double reciprocal plots. Format: biochemical, starfish (Marthasterias glacialis). How it is done: as §1
CDK1/cyclin B was extracted in homogenisation buffer from M phase starfish (Marthasterias glacialis) oocytes and purified by affinity chromatography on p9^CKShs1-sepharose beads, from which it was eluted by free p9^CKShs1. […] ATP (3,000 Ci/mmol; 1 mCi/ml) in a final volume of 30 μl. After 10 min. incubation at 30° C., 25 μl aliquots of supernatant were spotted onto P81 phosphocellulose papers and treated as described above.
as §2

pIC50: −log10 of the molar value. Where only a bound is given, the exact number is not on record here.

T3 sequence (P11802 whole entry, species assumed): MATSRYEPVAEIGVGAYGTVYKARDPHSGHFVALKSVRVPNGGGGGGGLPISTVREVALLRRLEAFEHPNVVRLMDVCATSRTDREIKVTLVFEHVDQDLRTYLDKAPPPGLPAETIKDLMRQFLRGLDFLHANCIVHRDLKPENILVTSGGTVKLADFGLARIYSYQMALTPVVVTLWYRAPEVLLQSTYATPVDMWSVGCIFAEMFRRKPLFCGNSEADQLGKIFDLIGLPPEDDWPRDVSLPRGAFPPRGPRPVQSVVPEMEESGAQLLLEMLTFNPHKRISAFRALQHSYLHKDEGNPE
T3 sequence (P24385 whole entry partner, species assumed): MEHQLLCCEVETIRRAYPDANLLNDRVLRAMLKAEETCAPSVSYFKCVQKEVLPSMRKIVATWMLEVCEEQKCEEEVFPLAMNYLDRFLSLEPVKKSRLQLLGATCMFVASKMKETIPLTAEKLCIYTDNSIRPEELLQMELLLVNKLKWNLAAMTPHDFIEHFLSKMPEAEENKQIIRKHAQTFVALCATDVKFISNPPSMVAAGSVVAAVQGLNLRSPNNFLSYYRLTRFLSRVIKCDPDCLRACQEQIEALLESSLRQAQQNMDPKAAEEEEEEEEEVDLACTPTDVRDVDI
Sequence of Insulin receptor tyrosine kinase (P06213 28-1382): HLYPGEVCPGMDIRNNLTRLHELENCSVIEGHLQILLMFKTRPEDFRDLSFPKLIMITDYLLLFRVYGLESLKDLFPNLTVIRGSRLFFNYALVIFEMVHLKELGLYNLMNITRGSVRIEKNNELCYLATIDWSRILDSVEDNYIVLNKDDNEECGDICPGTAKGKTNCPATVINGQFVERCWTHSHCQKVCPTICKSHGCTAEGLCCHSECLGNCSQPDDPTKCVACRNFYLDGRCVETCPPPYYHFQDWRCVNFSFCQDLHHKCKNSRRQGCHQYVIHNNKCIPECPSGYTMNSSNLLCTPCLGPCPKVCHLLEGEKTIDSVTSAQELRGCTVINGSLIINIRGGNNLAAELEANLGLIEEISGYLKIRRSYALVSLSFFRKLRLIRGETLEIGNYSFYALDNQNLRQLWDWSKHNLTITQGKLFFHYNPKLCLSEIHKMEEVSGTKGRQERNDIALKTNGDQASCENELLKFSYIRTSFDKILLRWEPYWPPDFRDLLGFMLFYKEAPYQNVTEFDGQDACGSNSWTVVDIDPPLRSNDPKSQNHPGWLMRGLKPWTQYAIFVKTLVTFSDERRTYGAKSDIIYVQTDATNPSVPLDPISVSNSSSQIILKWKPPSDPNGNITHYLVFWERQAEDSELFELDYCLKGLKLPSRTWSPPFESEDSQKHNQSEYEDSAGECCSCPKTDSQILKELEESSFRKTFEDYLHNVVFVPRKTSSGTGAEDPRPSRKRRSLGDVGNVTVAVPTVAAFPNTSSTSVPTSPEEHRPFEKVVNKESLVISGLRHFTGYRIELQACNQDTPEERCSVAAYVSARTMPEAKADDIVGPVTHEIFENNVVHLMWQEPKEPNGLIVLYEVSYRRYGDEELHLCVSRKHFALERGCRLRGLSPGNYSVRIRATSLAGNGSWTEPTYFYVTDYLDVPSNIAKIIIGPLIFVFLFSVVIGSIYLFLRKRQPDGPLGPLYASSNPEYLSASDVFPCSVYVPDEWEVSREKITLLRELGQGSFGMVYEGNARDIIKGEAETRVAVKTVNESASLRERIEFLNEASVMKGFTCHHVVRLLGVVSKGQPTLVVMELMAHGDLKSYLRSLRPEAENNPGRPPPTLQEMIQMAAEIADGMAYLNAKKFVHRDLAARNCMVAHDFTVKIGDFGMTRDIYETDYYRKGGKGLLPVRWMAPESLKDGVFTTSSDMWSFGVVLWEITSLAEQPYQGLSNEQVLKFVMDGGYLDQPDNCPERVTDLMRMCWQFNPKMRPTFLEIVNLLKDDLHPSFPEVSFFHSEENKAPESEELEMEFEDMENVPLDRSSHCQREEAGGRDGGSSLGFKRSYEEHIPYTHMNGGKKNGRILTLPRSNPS
T2 sequence (P27361 whole entry, species assumed): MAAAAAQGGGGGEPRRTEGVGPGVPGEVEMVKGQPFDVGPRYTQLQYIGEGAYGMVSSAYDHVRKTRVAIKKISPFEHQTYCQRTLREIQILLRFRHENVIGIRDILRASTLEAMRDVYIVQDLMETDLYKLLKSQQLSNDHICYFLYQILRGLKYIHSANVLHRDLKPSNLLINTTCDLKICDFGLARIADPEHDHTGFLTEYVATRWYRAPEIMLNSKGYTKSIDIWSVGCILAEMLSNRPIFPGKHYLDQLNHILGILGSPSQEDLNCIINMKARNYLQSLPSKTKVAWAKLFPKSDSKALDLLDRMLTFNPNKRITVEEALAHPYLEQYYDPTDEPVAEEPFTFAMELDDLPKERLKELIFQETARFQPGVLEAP
T1 sequence (P28482 whole entry, species assumed): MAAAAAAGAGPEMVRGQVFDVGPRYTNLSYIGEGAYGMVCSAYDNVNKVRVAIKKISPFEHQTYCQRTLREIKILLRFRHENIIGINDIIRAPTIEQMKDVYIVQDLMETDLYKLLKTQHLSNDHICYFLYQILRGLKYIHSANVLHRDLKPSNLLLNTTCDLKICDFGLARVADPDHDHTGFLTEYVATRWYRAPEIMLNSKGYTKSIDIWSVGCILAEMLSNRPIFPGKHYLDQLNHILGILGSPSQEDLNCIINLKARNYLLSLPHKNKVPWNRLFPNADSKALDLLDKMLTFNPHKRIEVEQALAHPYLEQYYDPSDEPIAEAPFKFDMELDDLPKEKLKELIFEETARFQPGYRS
T4 sequence (P24723 whole entry): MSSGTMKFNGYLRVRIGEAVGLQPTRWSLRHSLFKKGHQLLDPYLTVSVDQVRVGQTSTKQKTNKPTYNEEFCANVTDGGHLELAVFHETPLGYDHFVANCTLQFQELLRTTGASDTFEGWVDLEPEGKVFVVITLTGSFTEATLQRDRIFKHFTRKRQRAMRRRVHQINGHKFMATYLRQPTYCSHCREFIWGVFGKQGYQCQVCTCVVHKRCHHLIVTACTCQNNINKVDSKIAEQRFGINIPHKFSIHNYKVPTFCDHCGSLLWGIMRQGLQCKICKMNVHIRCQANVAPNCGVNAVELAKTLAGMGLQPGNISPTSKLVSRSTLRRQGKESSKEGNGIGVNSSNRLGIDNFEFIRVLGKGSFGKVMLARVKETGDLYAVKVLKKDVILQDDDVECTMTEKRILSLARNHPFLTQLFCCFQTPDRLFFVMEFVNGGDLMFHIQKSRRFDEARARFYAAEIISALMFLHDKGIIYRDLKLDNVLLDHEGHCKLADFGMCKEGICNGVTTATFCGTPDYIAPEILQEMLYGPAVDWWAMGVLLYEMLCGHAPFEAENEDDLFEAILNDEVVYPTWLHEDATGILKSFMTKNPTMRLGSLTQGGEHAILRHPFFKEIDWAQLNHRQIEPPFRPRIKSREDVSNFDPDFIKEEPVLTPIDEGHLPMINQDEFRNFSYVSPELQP

For `CCCCc1c(-c2ccc(O)cc2)[nH]c2nccnc12` [39 (RP107)], the pIC50 was 4.66 in data set [1]; 4.74 in data set [2]; 5.00 to 5.48 in [3]; less than 4.00 in data set [4]; less than 4.00 in [5]; less than 4.00 in data set [6]. In addition, the pIC50 is 4.22 in data set [7], less than 4.00 in data set [8], […] in data set [9] and less than 4.00 in data set [12]. Besides, the “Cell cycle distribution, unsynchronised cells” value in [10] (NT2 cells, 20 μM for 40 h) is “accumulation in G2/M phase”. For the same molecule, the “Cell cycle distribution after G2/M synchronisation by nocodazole” value in [10] (NT2 cells, 20 μM for 40 h after nocodazole withdrawal) is “remained in G2/M”. Besides, in data set [10] (NT2 cells, serum-enriched medium with 20 μM for 40 h), the “Cell cycle distribution after G0/G1 synchronisation by serum deprivation” value was “remained essentially in G0/G1”. The Signs of apoptosis entry in [10] (unsynchronised NT2 cells, 20 μM for 40 h) is on record as “No signs of apoptosis were detectable”. In data set [11], the Exponential cell growth result is “reversible inhibition of exponential cell growth”. The “Mechanism of inhibition versus ATP, CDK1/cyclin B” value in [13] is “competitive inhibitor for ATP”.
